Experimental data: patent US8664226B2, “Compound having 3-heteroarylpyrimidin-4-(3H)-one structure and pharmaceutical preparation containing same” (Kowa Company, Ltd., priority 2009, dated 2014)

Legend:
[1] = target: T1, angiotensin II type 1 receptor (Oryctolagus cuniculus, UniProt P34976); test: Angiotensin II antagonistic activity in isolated rabbit blood vessels; conditions: angiotensin II (10 nM)-induced contraction of rabbit thoracic aorta ring
T1 construct: By using a specimen of isolated rabbit blood vessels; from tissue; host or cells: rabbit thoracic aorta ring (New Zealand White, male)
T1 sequence (P34976 1-359): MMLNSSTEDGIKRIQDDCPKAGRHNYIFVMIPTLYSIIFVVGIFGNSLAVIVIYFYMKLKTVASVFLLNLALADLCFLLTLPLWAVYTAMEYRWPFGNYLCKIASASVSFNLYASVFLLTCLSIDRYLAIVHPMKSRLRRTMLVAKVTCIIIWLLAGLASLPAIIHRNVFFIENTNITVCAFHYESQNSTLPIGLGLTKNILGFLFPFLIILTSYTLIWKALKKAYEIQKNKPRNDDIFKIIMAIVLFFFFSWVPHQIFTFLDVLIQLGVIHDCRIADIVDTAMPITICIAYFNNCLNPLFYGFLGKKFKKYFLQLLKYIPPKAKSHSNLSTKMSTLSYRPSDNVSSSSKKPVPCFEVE
Summary of the method: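 Contraction of isolated rabbit vessel induced by angiotensin II, in a magnus bath at 37° C gassed with 95% O2/5% CO2. Responses expressed as % of the 10 nM angiotensin II contraction without compound, and IC50 calculated from the concentration-response curve.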

human PPARγ2 = target: T2, human PPARγ2 (Homo sapiens, UniProt P37231); test: PPARγ activation activity, Gal4 chimera luciferase transfection assay using COS7 cells; assay type: cell-based; conditions: for EC50 / Emax: COS7 cells; for EC50: Gal4-human PPARγ2 LBD chimera, luciferase reporter, 16 hours, read-out: EC50; for Emax: COS-7, 16 h, maximum activity strength relative to the maximum activity of rosiglitazone, read-out: % MAX vs Rosiglitazone
T2 construct: the amino acids 182 to 505 of human PPARγ2; expressed in transfected cells; host or cells: COS7 cells
Method: The agonistic activity of the compounds of the invention on PPARγ was measured based on the transfection assay using COS7 cells (DS Pharma Biomedical Co., Ltd., Osaka, Japan), which are the cell line derived from the kidney of the African green monkey. COS7 cells were cultured under 5% CO2 concentration, and DMEM medium containing 10% fetal bovine serum, glutamic acid, and antibiotics was used as a medium.
As an expression vector, a chimera in which DNA binding domain of Gal4, which is a yeast transcription factor, and ligand binding domain of human PPAR^γ2 are fused, i.e., a fused product between the amino acids 1 to 147 of Gal4 transcription factor and the amino acids 182 to 505 of human PPARγ2, was used. Furthermore, as a reporter vector, a firefly luciferase containing five copies of Gal4 recognition sequence in the promoter region was used. Plasmid transfection to the cells was performed according to a method which uses jetPEI (trade name, manufactured by Funakoshi Co., Ltd., Tokyo, Japan). Furthermore, β-galactosidase expression vector was employed as an internal standard.
After the transfection of the cells, the medium was replaced with a DMEM medium (containing 1% serum) added with the compound, and the cells were further cultured for 16 hours. After that, the luciferase activity and β-galactosidase activity in the cell lysis solution were measured.
For the present test, dimethyl sulfoxide (DMSO) was used for dissolution and dilution of the test compounds, and during the cell treatment, the DMSO concentration in DMEM medium (containing 1% serum) was adjusted to 0.1%. As a positive compound, rosiglitazone (trade name, manufactured by ALEXIS Corporation, Switzerland) was used. […] The 50% effective concentration of the test compound (EC50, 50% effect concentration) was calculated by using SAS Preclinical Package Ver5.0 (trade name, manufactured by SAS institute Japan Co., Tokyo, Japan), which is a statistical analysis program.

T2 sequence (P37231 182-505): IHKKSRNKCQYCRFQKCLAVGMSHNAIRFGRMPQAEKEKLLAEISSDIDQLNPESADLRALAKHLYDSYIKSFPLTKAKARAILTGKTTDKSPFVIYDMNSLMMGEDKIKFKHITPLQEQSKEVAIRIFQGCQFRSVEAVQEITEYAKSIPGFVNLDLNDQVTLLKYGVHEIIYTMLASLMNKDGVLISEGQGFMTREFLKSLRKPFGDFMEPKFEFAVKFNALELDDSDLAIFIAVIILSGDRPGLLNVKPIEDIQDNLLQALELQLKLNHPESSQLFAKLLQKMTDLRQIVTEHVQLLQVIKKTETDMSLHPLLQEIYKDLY
T2 sequence (P04386 1-147 partner limits assumed): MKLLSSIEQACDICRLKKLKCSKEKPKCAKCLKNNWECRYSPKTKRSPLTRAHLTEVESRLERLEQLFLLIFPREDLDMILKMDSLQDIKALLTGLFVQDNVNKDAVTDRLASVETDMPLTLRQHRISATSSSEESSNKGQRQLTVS

IC50 [1] [µM] | EC50 (human PPARγ2) [µM] | Emax (human PPARγ2) [%] | SMILES | maximum activity compared with telmisartan (human PPARγ2; maximum PPARγ activity, telmisartan 30 to 50% of rosiglitazone under the same condition)
< 10 | 0.74 |  | CCCCc1nc(C)n(-c2nccc3ccccc23)c(=O)c1Cc1ccc(-c2ccccc2-c2nnn[nH]2)cc1 [Example 67, 5-{[2′-(1H-tetrazol-5-yl)biphenyl-4-yl]methyl}-6-butyl-3-(isoquinolin-1-yl)-2-methylpyrimidin-4 (3H)-one] | 
0.223 | 2.61 |  | CCCCc1nc(C)n(-c2cc3ccccc3cn2)c(=O)c1Cc1ccc(-c2ccccc2-c2nnn[nH]2)cc1 [Example 68, 5-{[2′-(1H-tetrazol-5-yl)biphenyl-4-yl]methyl}-6-butyl-3-(isoquinolin-3-yl)-2-methylpyrimidin-4 (3H)-one] | 

More lines, now with the values behind:

SMILES | IC50 [1] [µM] | EC50 (human PPARγ2) [µM] | Emax (human PPARγ2) [%] | maximum activity compared with telmisartan (human PPARγ2; maximum PPARγ activity, telmisartan 30 to 50% of rosiglitazone under the same condition)
CCCCc1nc(C)n(-c2nccs2)c(=O)c1Cc1ccc(-c2ccccc2-c2nnn[nH]2)cc1 [Example 62, 5-{[2′-(1H-tetrazol-5-yl)biphenyl-4-yl]methyl}-6-butyl-2-methyl-3-(thiazol-2-yl)pyrimidin-4 (3H)-one] | 0.435 | 3.39 |  | 
CCCCc1nc(C)n(-c2ccon2)c(=O)c1Cc1ccc(-c2ccccc2-c2nnn[nH]2)cc1 [Example 63, 5-{[2′-(1H-tetrazol-5-yl)biphenyl-4-yl]methyl}-6-butyl-3-(isoxazol-3-yl)-2-methylpyrimidin-4 (3H)-one] | 0.193 | 3.67 |  | 
CCCCc1nc(C)n(-c2ccnn2C)c(=O)c1Cc1ccc(-c2ccccc2-c2nnn[nH]2)cc1 [Example 64, 5-{[2′-(1H-tetrazol-5-yl)biphenyl-4-yl]methyl}-6-butyl-2-methyl-3-(1-methyl-1H-pyrazol-5-yl)pyrimidin-4 (3H)-one] | 0.652 | 3.3 |  | 
CCCCc1nc(C)n(-c2ccc3ccccc3n2)c(=O)c1Cc1ccc(-c2ccccc2-c2nnn[nH]2)cc1 [Example 66, 5-{[2′-(1H-tetrazol-5-yl)biphenyl-4-yl]methyl}-6-butyl-2-methyl-3-(quinolin-2-yl)pyrimidin-4 (3H)-one] | 0.432 | 0.82 | 55.5 | the same or greater than that of telmisartan
CCCCc1nc(C)n(-c2nc3ccccc3n2C)c(=O)c1Cc1ccc(-c2ccccc2-c2nnn[nH]2)cc1 [Example 69, 5-{[2′-(1H-tetrazol-5-yl)biphenyl-4-yl]methyl}-6-butyl-2-methyl-3-(1-methyl-1H-benzimidazol-2-yl)pyrimidin-4 (3H)-one] | 0.958 | 2.69 | 31.6 | 
